Assay results as given in patent publication US8134015B2, “Compound inhibiting in vivo phosphorous transport and medicine containing the same” (Kyowa Hakko Kirin Co., Ltd., priority 2003, dated 2012).

What follows are compounds tested against T1, rat NaPi-2b (Rattus norvegicus, UniProt Q9JJ09) (assay: Sodium-dependent phosphate uptake of Xenopus oocytes which expressed NaPi-2b (32P)). Conditions: Xenopus oocytes expressing rat NaPi-2b, 32P radioactive phosphorus; read-out: IC50 (phosphate uptake inhibitory activity).
T1 construct: expressed in transfected cells; host or cells: Xenopus oocytes injected with cRNA
T1 sequence (Q9JJ09 1-695): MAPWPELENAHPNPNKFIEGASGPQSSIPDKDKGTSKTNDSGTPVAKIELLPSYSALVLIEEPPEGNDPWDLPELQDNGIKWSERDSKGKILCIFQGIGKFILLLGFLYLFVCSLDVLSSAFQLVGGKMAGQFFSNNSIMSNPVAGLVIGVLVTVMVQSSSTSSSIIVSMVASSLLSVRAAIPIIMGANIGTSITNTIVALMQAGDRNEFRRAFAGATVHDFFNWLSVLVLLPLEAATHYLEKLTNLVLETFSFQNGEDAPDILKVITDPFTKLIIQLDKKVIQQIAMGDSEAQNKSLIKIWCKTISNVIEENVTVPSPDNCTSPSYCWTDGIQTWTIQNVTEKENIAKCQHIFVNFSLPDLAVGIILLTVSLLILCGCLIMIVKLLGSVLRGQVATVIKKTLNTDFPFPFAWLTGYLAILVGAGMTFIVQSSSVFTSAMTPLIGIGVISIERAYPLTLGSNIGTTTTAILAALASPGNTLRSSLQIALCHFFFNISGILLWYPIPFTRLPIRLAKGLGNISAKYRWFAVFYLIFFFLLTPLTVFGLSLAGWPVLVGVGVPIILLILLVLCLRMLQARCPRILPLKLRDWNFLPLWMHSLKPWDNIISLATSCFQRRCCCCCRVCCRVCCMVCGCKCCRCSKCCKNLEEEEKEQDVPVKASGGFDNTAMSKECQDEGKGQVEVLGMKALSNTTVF
Type: cell-based
Procedure, shortened: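 Rat NaPi-2b cloned from small-intestine cDNA; cRNA injected into Xenopus oocytes, expression for 2 days. Phosphate uptake inhibition measured with 32P; percent inhibition at 300 μM and 100 μM read from the same inhibition curve.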

| Structure (SMILES) | IC50 [µM] |
| --- | --- |
| Cc1ccc(/C=N/NC(=O)c2cc(Br)ccc2NC(=O)c2ccc(CNCCN3CCOCC3)cc2)cc1C [Compound 281, N-[4-Bromo-2-(3,4-dimethyl-benzylidene-hydrazinocarbonyl)-phenyl]-4-[(2-morpholin-4-yl-ethylamino)-methyl]-benzamide] | 4.6 |
| Cc1ccc(/C=N/NC(=O)c2cc(Br)ccc2NC(=O)c2ccc(CNCCN3CCOCC3)cc2)cc1 [Compound 282, N-[4-Bromo-2-(4-methyl-benzylidene-hydrazinocarbonyl)-phenyl]-4-[(2-morpholin-4-yl-ethylamino)-methyl]-benzamide] | 6.71 |
| Cc1cccc(/C=N/NC(=O)c2cc(Br)ccc2NC(=O)c2ccc(CNCCN3CCOCC3)cc2)c1 [Compound 283, N-[4-Bromo-2-(3-methyl-benzylidene-hydrazinocarbonyl)-phenyl]-4-[(2-morpholin-4-yl-ethylamino)-methyl]-benzamide] | 22.4 |
| O=C(Nc1ccc(Br)cc1C(=O)N/N=C/c1ccc(F)cc1)c1ccc(CNCCN2CCOCC2)cc1 [Compound 284, N-[4-Bromo-2-(4-fluoro-benzylidene-hydrazinocarbonyl)-phenyl]-4-[(2-morpholin-4-yl-ethylamino)-methyl]-benzamide] | 26.9 |
| CCN(CC)CCN(C)Cc1ccc(C(=O)Nc2ccc(Br)cc2C(=O)N/N=C/c2cccc(C)c2)cc1 [Compound 286, N-[4-Bromo-2-(3-methyl-benzylidene-hydrazinocarbonyl)-phenyl]-4-{[(2-diethylamino-ethyl)-methyl-amino]-methyl}-benzamide] | 0.57 |
| CCN(CC)CCN(C)Cc1ccc(C(=O)Nc2ccc(Br)cc2C(=O)NN=Cc2ccc(F)cc2)cc1 [Compound 287, N-[4-Bromo-2-(4-fluoro-benzylidene-hydrazinocarbonyl)-phenyl]-4-{[(2-diethylamino-ethyl)-methyl-amino]-methyl}-benzamide] | 0.11 |
| CCN(CC)CCN(C)Cc1ccc(C(=O)Nc2ccc(Br)cc2C(=O)N/N=C/c2cccc(F)c2)cc1 [Compound 288, N-[4-Bromo-2-(3-fluoro-benzylidene-hydrazinocarbonyl)-phenyl]-4-{[(2-diethylamino-ethyl)-methyl-amino]-methyl}-benzamide] | 1.31 |
| CCN(CC)CCN(C)Cc1ccc(C(=O)Nc2ccc(Br)cc2C(=O)N/N=C/c2ccc(Cl)c(C(F)(F)F)c2)cc1 [Compound 289, N-[4-Bromo-2-(4-chloro-3-trifluoromethyl-benzylidene-hydrazinocarbonyl)-phenyl]-4-{[(2-diethylamino-ethyl)-methyl-amino]-methyl}-benzamide] | 2.89 |
| CCN(CC)CCN(C)Cc1ccc(C(=O)Nc2ccc(Br)cc2C(=O)NN=Cc2ccc(OC)cc2)cc1 [Compound 290, N-[4-Bromo-2-(4-methoxy-benzylidene-hydrazinocarbonyl)-phenyl]-4-{[(2-diethylamino-ethyl)-methyl-amino]-methyl}-benzamide] | 3.25 |
| CCN(CC)CCN(C)Cc1ccc(C(=O)Nc2ccc(Br)cc2C(=O)N/N=C/c2cccc(OC)c2)cc1 [Compound 291, N-[4-Bromo-2-(3-methoxy-benzylidene-hydrazinocarbonyl)-phenyl]-4-{[(2-diethylamino-ethyl)-methyl-amino]-methyl}-benzamide] | 1.16 |
| CCN(CC)CCNCc1ccc(C(=O)Nc2ccc(Br)cc2C(=O)N/N=C/c2ccc(C)c(C)c2)cc1 [Compound 292, N-[4-Bromo-2-(3,4-dimethyl-benzylidene-hydrazinocarbonyl)-phenyl]-4-[(2-diethylamino-ethylamino)-methyl]-benzamide] | 3.5 |
| CCN(CC)CCNCc1ccc(C(=O)Nc2ccc(Br)cc2C(=O)N/N=C/c2ccc(C)cc2)cc1 [Compound 293, N-[4-Bromo-2-(4-methyl-benzylidene-hydrazinocarbonyl)-phenyl]-4-[(2-diethylamino-ethylamino)-methyl]-benzamide] | 5.59 |
